Measured values published in PubChem BioAssay (NCI).
“And” between values parts separate entries of the source, which are not always exact repeats. Equal values may be shown once.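 1) Cells in 96-well plates. 2) Compound, 48 h, 5 concentrations. 3) Linear interpolation between surrounding doses. 4) Unreached endpoint = highest concentration. GI50 marks 50% less growth. TGI: concentration producing complete growth inhibition.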

Assays:
Test in all cases: growth of human tumour cells (NCI), 48 h
U251 CNS = tested on: U251 CNS
786-0 renal = tested on: 786-0 renal
MCF7 breast = tested on: MCF7 breast
A498 renal = tested on: A498 renal
MDA-MB-231 breast = tested on: MDA-MB-231 breast
SK-MEL-5 melanoma = tested on: SK-MEL-5 melanoma
EKVX NSCLC = tested on: EKVX NSCLC
MDA-MB-435 = tested on: MDA-MB-435
TK-10 renal = tested on: TK-10 renal
IGROV1 ovarian = tested on: IGROV1 ovarian

Structure (SMILES)	GI50 (U251 CNS) [µM]	TGI (U251 CNS)	GI50 (786-0 renal) [µM]	TGI (786-0 renal)	GI50 (MCF7 breast) [µM]	TGI (MCF7 breast)	GI50 (A498 renal) [µM]	TGI (A498 renal)	GI50 (MDA-MB-231 breast) [µM]	TGI (MDA-MB-231 breast)	GI50 (SK-MEL-5 melanoma) [µM]	TGI (SK-MEL-5 melanoma)	GI50 (EKVX NSCLC) [µM]	TGI (EKVX NSCLC)	GI50 (MDA-MB-435) [µM]	TGI (MDA-MB-435)	GI50 (TK-10 renal) [µM]	TGI (TK-10 renal)	GI50 (IGROV1 ovarian) [µM]	TGI (IGROV1 ovarian)
O=C(c1cc(F)c(Cl)cc1Cl)N1N=C(c2ccccc2)CC1(O)c1ccccc1 (configuration not stated)	18.4	38.5 µM	15.8	40.9 µM	18.3	38.2 µM	11.8	24 µM	15.7	33.3 µM	14	26.9 µM	19.2	65.5 µM	22.1	49.4 µM	30.8	80.8 µM	15.2	36.7 µM
Fc1ccc(Oc2nccc(-c3c(-c4ccc(F)cc4)ncn3C3CCNCC3)n2)cc1	> 25	> 25 µM	> 25	> 25 µM	> 25	> 25 µM	> 25	> 25 µM		> 9.34 µM	> 25	> 25 µM	> 25	> 25 µM	> 25	> 25 µM	> 19.9	> 25 µM	19.2	> 25 µM
N#Cc1ccccc1NC(=O)/C(=N\NC(=O)c1ccncc1)C(c1cnc2ccc([N+](=O)[O-])cc2n1)[N+](=O)[O-] (configuration not stated)		> 100 µM		> 100 µM		> 100 µM		> 100 µM		> 100 µM		> 100 µM		> 100 µM		> 100 µM		> 100 µM		> 100 µM
c1ccc(C(=NNc2nc3ccccc3o2)c2ccccn2)nc1	0.0649	20.1 µM and 16.1 µM	0.125		0.0289		0.117	0.834 µM and 6.5 µM	0.0693	21.6 µM and 17.7 µM	0.163	1.18 µM and 0.491 µM	0.0387		0.273	34.6 µM and 28.3 µM	0.0673	> 100 µM and 17.5 µM	0.0437	11.7 µM
C/C=C(\C)C(=O)N[C@H]1[C@@H](OC(C)=O)C[C@]2(C)C3CC[C@@]4(C)C(CC[C@@H]4C(C)N(C)C)C3CCC2[C@H]1O (some centres not stated)	4.48	18.3 µM	5.22	16.3 µM	3.71	18.1 µM	2.73	20 µM	3.23	10.7 µM	1.6	3.77 µM	5.63	31.4 µM	2.27	6.78 µM	8.32	24.5 µM	5.88	16.8 µM
N=C1c2nc3n(c2C(=O)c2nc4n(c21)CCCC4)CCCC3	5.75	48.7 µM	32.2	> 89.3 µM	1.36	3.61 µM	0.727	8.16 µM	33.6	> 100 µM	0.431	0.864 µM	44.7	> 100 µM	0.235	0.504 µM	52.6	> 100 µM	41.6	> 100 µM
CCOC(=O)CCCn1c(SC)nc2cc(-c3ccco3)[nH]c2c1=O	17.1	56 µM	34.2	> 100 µM	> 100	> 100 µM	27.4	76 µM	28	81.2 µM	> 100	> 100 µM	65.9	> 100 µM	> 100	> 100 µM	35.1	> 100 µM	19.6	76.6 µM
COc1cc(NC(=O)c2cc(OC)c3ccn(C)c3c2)cc2c1C[C@]1(C)CC[C@@H](O)C(C)(C)[C@H]1O2	4.05	> 100 µM	1.29	4.08 µM	4.68	65.9 µM	2.85	7.15 µM	7.73	41.8 µM	2.87	9.08 µM	11.3	> 100 µM	9.08	43.6 µM	35.9	> 100 µM	21.2	> 100 µM
OCC(O)C(O)C(O)C1SC(c2ccccc2)=NN1c1ccccc1 (configuration not stated)		> 100 µM		> 100 µM		> 100 µM		> 100 µM		> 91.6 µM		> 100 µM		> 100 µM		> 100 µM		> 95.7 µM		> 100 µM
N#CC1=C(N)OC2=C(COc3ccc(F)cc32)C1c1ccc(Cl)cc1 (configuration not stated)	32.6	> 100 µM	32.3	> 100 µM	30.3	> 100 µM	22.2	67.7 µM	26.1	88 µM	20.4	58.7 µM	37.3	> 100 µM	28.5	> 100 µM	43.1	> 100 µM	70.3	> 100 µM
Cc1ccccc1CN1CC2=C(CCN(Cc3ccccc3)C2=O)N2CCN=C12		> 100 µM		> 100 µM		> 100 µM		> 100 µM		> 80 µM		> 64.7 µM		> 100 µM		> 100 µM		> 100 µM		> 100 µM
C=C1CC[C@@]2(C#N)[C@H]3[C@H](CC[C@@H]2C)[C@@H](C)C[C@@H](CC(C)(C)C#N)[C@H]13	2.86	29.8 µM	2.33	23.3 µM	0.785	15.8 µM	6.6	58.1 µM	6.1	35.8 µM	1.54	12.9 µM	1.12	45.7 µM	2.06	95.7 µM	0.969	31.5 µM	4.77	59.4 µM
CCN(CC)CCOc1ccc(Nc2ncc3cc(-c4ccc(O)cc4)c(=O)n(C)c3n2)cc1	1.4	2.81 µM	0.391	2.65 µM	1.07	2.78 µM	1.5	13.4 µM	1.17	7.36 µM	14.8	31 µM	15.1	37.5 µM	0.983	16.1 µM	3.9	8.73 µM	0.0803	15.9 µM
c1ccc2[nH]c(SSc3nc4ncncc4[nH]3)nc2c1	8.63	> 100 µM	0.463	> 100 µM	0.295		8.11	> 91.1 µM	2.9	> 100 µM	3.62	> 100 µM	25.9	> 100 µM	0.446	> 100 µM	0.364	> 37.3 µM	4.48	96.2 µM
O=C(Nc1ccc(-n2cc(-c3ccncc3)c(-c3ccc(Cl)c(O)c3)n2)cc1)Nc1cc(C(F)(F)F)cc(C(F)(F)F)c1	1.51	2.98 µM	1.8	3.72 µM	2.58	8.15 µM	1.56	5.39 µM	2.11	4.93 µM	1.67	3.41 µM	1.97	5.51 µM	1.77	3.45 µM	3.05	11.4 µM	2.04	4.45 µM
COc1cc(Cl)cc(-c2nn(C(=O)NCCN3CCN(C)CC3)cc2-c2ccncc2)c1	15.1	> 100 µM	5.99	25.6 µM	29.4	> 100 µM	4.67	24.7 µM	9.7	43.5 µM	3.76	16.7 µM	0.971	37.1 µM	10.4	35 µM	3.67	> 100 µM	17.8	> 100 µM
O=[N+]([O-])c1ccc(-c2nc(N(CCO)CCO)c3ccccc3n2)o1	0.229	1.34 µM	0.231	0.621 µM	0.0419	0.397 µM	0.119	0.255 µM	1.08	4.25 µM	0.112	0.244 µM	0.464	4.31 µM	0.309	1.27 µM	0.286		0.151	0.45 µM
C=C(Cl)COC(=O)Nc1cccc(Cl)c1		> 100 µM		92.2 µM		> 100 µM		90.4 µM		> 100 µM		39.6 µM		59.1 µM		> 100 µM		> 100 µM		> 100 µM
Cn1ccc2c(NCCN)c3c(c(NCCN)c21)C(=O)c1ccccc1C3=O	1.03	9.88 µM	0.443	3.95 µM	0.442	7.22 µM	2.31	4.87 µM	0.619	2.38 µM	2.19	4.99 µM	1.34	5.3 µM	1.54	5.59 µM	2.53	9.96 µM	0.824	> 31.8 µM
CC1(C)COCN1COC1CCCCC1		> 100 µM		> 100 µM		> 100 µM		> 100 µM		> 100 µM		> 100 µM		> 100 µM		> 100 µM		> 100 µM		> 100 µM
CC([C@H]1CCC2C3CCC4C[C@@H](NC=O)CC[C@]4(C)C3CC[C@@]21C)N(C)C (some centres not stated)	2.96	13.8 µM	1.99	4.15 µM	2.06	7.26 µM	2.51	11.9 µM	2.38	5.89 µM	1.37	2.74 µM	2.64	19.1 µM	2.29	5.86 µM	10.1	24.7 µM	4.81	18.2 µM
O=C1/C(=C/c2ccc(O)c([N+](=O)[O-])c2)CCC/C1=C\c1ccc(O)c([N+](=O)[O-])c1	14	18.3 µM and 26.9 µM	43.7	25.5 µM and > 100 µM	15.8	50 µM and 63 µM		13.1 µM	16.4	50 µM and 39.3 µM	14.7	17.4 µM and 31.5 µM	15	50 µM and 28.8 µM	1.53	21.3 µM and 5.35 µM	38.8	50 µM and > 100 µM	15.2	17 µM and 28.5 µM
CC(C)(C)C(=O)Nc1ccccc1I(=O)=O	> 100	> 100 µM	> 100	> 100 µM	> 100	> 100 µM	> 100	> 100 µM	> 100	> 100 µM	> 100	> 100 µM	> 100	> 100 µM	> 100	> 100 µM	> 100	> 100 µM	> 100	> 100 µM
COc1ccc2c(c1)nc(N)c1c3cc(OC)c(OC)cc3cn21	0.118	14.6 µM	0.205	11.9 µM	0.148	13.7 µM	0.0135	0.592 µM	0.345	17.4 µM	0.0645	0.987 µM	1.81	22 µM	< 0.01		3.48	20.8 µM	0.249	20.1 µM
CC(=O)Nc1nc(SCc2ccccc2)c2ncn(C(C)=O)c2n1	88.8	> 100 µM	72.5	> 100 µM	91.8	> 100 µM	30.9	> 100 µM	77.3	> 100 µM	45.3	> 100 µM	71.6	> 100 µM	> 100	> 100 µM	23.4	78.3 µM	79	> 100 µM
Nc1ccc(C(=O)c2ccc(N)c(Br)c2)cc1Br	0.419	18.3 µM	0.775	17.8 µM	0.428	> 100 µM	0.277	3.95 µM	0.772	> 47.1 µM	0.372	17.9 µM	0.536	> 100 µM	0.207	0.49 µM	0.567	21.5 µM	0.474	18.4 µM
